Source: US20220133831A1, “Sarcopoterium Spinosum Extract for Treating Inflammation” (Ariel Scientific Innovations Ltd., priority 2019, published 2022)

What was measured:
Type in all cases: cell-based, mouse
[1] = tested on: bone marrow-derived macrophages (BMDM); assay: mRNA expression in BMDM (RT-PCR); details: 24 hr
Description: (§1) In-vitro experiments were performed on RAW264.7 mouse macrophage cell line and on bone marrow-derived macrophages (BMDM). RAW264.7 cells were grown in high glucose DMEM containing 10% FBS, 2 mM 1-glutamine and 1% penicillin/streptomycin. For BMDM: C57bl/6J mice at age 10 weeks were purchased from Envigo, Israel. BMDMs were isolated from femur and tibia bones. Mice were sacrificed using a CO2 chamber. Mice legs were cut off, while fur, flesh and muscle tissue were removed in sterile environment followed by disconnection of the tibia from the femur. Bone marrow content was washed out using a complete RPMI and 23G syringe followed by filtration of the supernatant through a 21G syringe. The cells were centrifuged at 450×g for 10 min at room temperature and the pellet was resuspended in RPMI containing 10% FBS, 1% penicillin/streptomycin, HEPES buffer (120 Mm) and M-CSF (50 μg/ml). The media was replaced every 3 days. The experiment was performed on the 7th day of differentiation.
(§2) Total RNA was extracted from Raw264.7 cells using TRI reagent (Molecular Research Center, Inc. Cincinnati, Ohio) according to manufacturer instructions. RNA (4 μg) was reverse transcribed by oligo-dT priming (Stratascript 5.0 multi-temperature reverse transcriptase, Stratagene) according to manufacturer instructions. Real-time PCR amplification reactions were performed using SYBR Fast Universal Ready-mix Kit (Kappa Biosystems), using the MxPro QPCR instrument (Stratagene). Primers for real time PCR reactions were synthesized by Sigma, Israel.

[2] = tested on: bone marrow-derived macrophages (BMDM); assay: Cell morphology of bone marrow-derived macrophages; details: LPS or SSE, 24 hr
Description: FIGS. 6A-6D show an immunomodulatory effect of SSE on bone marrow-derived macrophages (BMDM). BMDM were isolated and cultured as described in the methods. Cells were treated with LPS and/or SSE for 24 hr. A. micrographs of cells were performed by bright field Olympus imaging system. Upper two: left—control; right—LPS; lower two: left—SSE; right—LPS+SSE. B. NO synthesis was measured by Griess reagent as described in the methods. C. mRNA was isolated and expression of selected genes was measured by RT-PCR as described in the methods. Results were normalized to the expression of the housekeeping gene RPS29, and are presented as the Mean±SEM. *P<0.05, **P<0.005, ***P<0.001 ****P<0.0001 compared to control, or as indicated in graphs, by one-way Anova, followed by Bonferroni's post-test. D. Western-blot analysis was performed as described in the methods. These are representative results of 3 independent experiments.
In-vitro experiments were performed on RAW264.7 mouse macrophage cell line and on bone marrow-derived macrophages (BMDM). RAW264.7 cells were grown in high glucose DMEM containing 10% FBS, 2 mM 1-glutamine and 1% penicillin/streptomycin. For BMDM: C57bl/6J mice at age 10 weeks were purchased from Envigo, Israel. BMDMs were isolated from femur and tibia bones. Mice were sacrificed using a CO2 chamber. […]

[3] = tested on: bone marrow-derived macrophages (BMDM); assay: NO secretion of BMDM (Griess reagent); details: 24 hr
Description: as §1
(§3) RAW264.7 cells (1×10^5 cells/ml) were cultured in 6-well plates. After 24 h incubating, NO synthesis was determined by assaying the culture supernatant for nitrite, using Griess reagent (Promega), according to manufacturer instructions.

[4] = tested on: bone marrow-derived macrophages (BMDM); assay: Western blot analysis of MAPK phosphorylation in BMDM
Description: as §1
RAW264.7 cells were treated with LPS (200 ng/ml) and/or SSE (70 μg/ml) for 24 hr. Protein were lysed using RIPA buffer supplemented with protease and phosphatase inhibitors. The samples were homogenized and centrifuged at 14,000 rpm for 15 min. The supernatant was collected and protein concentration was measured using the Bradford method. […]

[5] = tested on: RAW264.7 cells; assay: Real time PCR, mRNA expression of pro and anti-inflammatory genes; details: LPS and/or SSE, 24 h
Description: as §2

[6] = tested on: RAW264.7 cells; assay: Cell morphology, bright field micrographs; details: LPS or SSE, 24 h
Description: FIGS. 3A-3B show increased viability and affected cell morphology in […] cells in response to SSE treatment. RAW264.7 cells were treated with lipopolysaccharide (LPS) or SSE for 24 h. A. Viability was measured by XTT assay. Results are presented as the Mean±SEM, *P<0.05, **P<0.005, ***P<0.001 by one-way Anova, followed by Bonferroni's post-test. B. Micrographs of cells were performed using bright field Olympus imaging system, ×20 magnification. Upper two: left—control; right—LPS; lower two: left—SSE; right—LPS+SSE.
as §1, with “The cells were centrifuged at 450×g for 10 min at room temperature and the pellet was resuspended in RPMI containing 10% FBS, 1% penicillin/streptomycin, HEPES buffer (120 Mm) and M-CSF (50 μg/ml). The media was replaced every 3 days. The experiment was performed on the 7th day of differentiation.” left out

[7] = tested on: NFκB in RAW264.7 cells; assay: NFκB activation (NFkB p65 Transcription Factor Assay Kit); details: LPS 200 ng/ml, SSE 70 μg/ml
Description: RAW264.7 cells were treated with LPS (200 ng/ml) or SSE (70 μg/ml) for 3 h. NFκB activation was measured using NFkB p65 Transcription Factor Assay Kit (Abcam, Cambridge, UK), according to manufacturer instructions. In this assay, nuclear proteins were extracted using extraction buffer supplied by Abcam. The samples were homogenized and centrifuged at 12,000 RPM for 1 min. The supernatant was collected and protein concentration was measured using the Bradford method. Nuclear protein extract (5 μg) was added to the wells, which were coated with DNA sequence containing the NFkB response element. The selective binding of the transcription factor to its DNA response element was measured according to manufacturer's instructions.

[8] = tested on: RAW264.7 cells; assay: Western blot analysis of MAPK, STAT and Akt phosphorylation
Description: RAW264.7 cells were treated with LPS (200 ng/ml) and/or SSE (70 μg/ml) for 24 hr. Protein were lysed using RIPA buffer supplemented with protease and phosphatase inhibitors. The samples were homogenized and centrifuged at 14,000 rpm for 15 min. The supernatant was collected and protein concentration was measured using the Bradford method. Proteins (20 μg per lane) were separated by SDS-polyacrylamide gel electrophoresis and transferred onto nitrocellulose membranes. The membranes were blocked in 5% dry milk solution, incubated with the appropriate antibody solutions (5% BSA in 0.01% TBST) and proteins were immunodetected using the enhanced chemiluminescence method.

[9] = tested on: RAW264.7 cells; assay: Nitrite assay (Griess reagent), NO synthesis; details: LPS and/or SSE, 24 h
Description: as §3

[10] = tested on: RAW264.7 cells; assay: Cell viability assay (XTT); details: 24 h
Description: as §1
RAW264.7 cells were seeded (5×10^4 cells/well) in 96-well plates, and incubated overnight followed by treatment with LPS (200 ng/ml) and/or SSE (70 μg/ml). Cell viability was determined by XTT assay (Biological Industries, Israel. Cat. No.: 20-300-1000) according to manufacturer instructions.

[11] = LPS 200 ng/ml or SSE 70 μg/ml, 24 hr

Substance: lipopolysaccharide [LPS]
- mRNA expression of Arg1 [1]: also increased
- mRNA expression of IL1β [1]: stimulated
- mRNA expression of IL-6 [1]: stimulated
- mRNA expression of IL-10 [1]: also increased
- mRNA expression of MCP-1 [1]: stimulated
- mRNA expression of TNFα [1]: stimulated
- morphology of BMDM [2]: enlargement of the cells, with a minor vacuolization
- NO secretion (basal) [3]: significantly increased
- Erk phosphorylation [4]: phosphorylated
- P38 phosphorylation [4]: increased
- mRNA expression of IL1β [5]: increased
- mRNA expression of IL-6 [5]: increased
- mRNA expression of MCP-1 [5]: increased
- mRNA expression of TNFα [5]: increased
- morphology of cells [6]: flattened, increased in size and acquired a distinct dendritic morphology
- NFκB activation (binding of NFκB to its DNA response element) [7]: increased
- Akt phosphorylation [8]: induced
- STAT1 phosphorylation [8]: not affected
- STAT3 phosphorylation on S727 residue [8]: induced to be phosphorylated
- ERK1/2 phosphorylation [8, 11]: phosphorylated
- JNK phosphorylation [8, 11]: phosphorylated
- p38 phosphorylation [8, 11]: phosphorylated
- STATS phosphorylation ([8]; data not shown): not detected at all
- NO synthesis (nitrite in supernatant) [9]: increased
- proliferation rate (viability by XTT) [10]: stimulatory effect
